Patent US7943624B2, “Pyridinylpyrazolopyrimidinone derivatives as PDE 7 inhibitors” (Asubio Pharma Co. Ltd., priority 2003, dated 2011)
Values joined by “and” are separate entries in the source; they are usually repeats but may differ in a detail not shown here. Equal values may be shown once.

Target: T1, PDE 7 (phosphodiesterase VII) (Homo sapiens, UniProt Q13946)
T1 construct: filtrated with 0.2 μm filter to obtain the soluble fraction; endogenous in cells; host or cells: MOLT-4 (ATCC CRL-1582); soluble fraction, HiTrap Q eluate at about 350 mM NaCl
T1 sequence (Q13946 whole entry): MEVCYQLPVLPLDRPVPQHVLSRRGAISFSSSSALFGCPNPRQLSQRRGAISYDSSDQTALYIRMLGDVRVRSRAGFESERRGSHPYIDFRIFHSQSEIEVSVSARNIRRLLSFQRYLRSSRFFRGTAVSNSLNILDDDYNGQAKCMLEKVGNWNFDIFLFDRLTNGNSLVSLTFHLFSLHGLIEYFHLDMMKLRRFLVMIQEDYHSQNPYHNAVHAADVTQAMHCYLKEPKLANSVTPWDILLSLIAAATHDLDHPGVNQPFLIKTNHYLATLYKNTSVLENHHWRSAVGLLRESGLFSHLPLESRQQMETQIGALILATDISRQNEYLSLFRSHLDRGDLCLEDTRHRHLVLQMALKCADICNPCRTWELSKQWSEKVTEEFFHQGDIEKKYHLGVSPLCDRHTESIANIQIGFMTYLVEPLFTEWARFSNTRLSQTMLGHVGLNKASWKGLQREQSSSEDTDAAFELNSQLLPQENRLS
Experiment: PDE 7 inhibiting effect (Biological Test 1; 3H-cAMP hydrolysis by PDE 7 fraction from MOLT-4 cells)
Assay type: biochemical
Settings: PDE 7 active fraction from MOLT-4 cells; 0.064 μM cAMP, 10 μM rolipram, 2 hours at 25° C.
Protocol: The PDE 7 (phosphodiesterase VII) inhibiting effect of the compounds of the present invention was performed by the following method, which was modified assay method described in Biochemical. Pharmacol. 48(6), 1219-1223 (1994).
(1) The active fraction of PDE 7 (phosphodiesterase VII) was obtained. That is, MOLT-4 (obtainable from ATCC as ATCC No. CRL-1582), which was cell line of human acute lymphoblastic lymphoma T cells, was incubated in RPMI1640 culture medium containing 10% fetal bovine serum to obtain 5×10^8 MOLT-4 cells. The cells were collected by centrifugation and suspended with 10 mL of buffer solution A 125 mM of tris-HCl, 5 mM of 2-mercaptoethnol, 2 mM of benzamidine, 2 mM of EDTA, 0.1 μM of 4-(2-aminoethyl)benzensulfonyl hydrochloride; pH 7.5], then homogenized by Polytron® homogenizer. The homogenate were centrifuged under 25,000×G for 10 minutes at 4° C. The supernatant was separated and thus obtained supernatant was further centrifuged under 100,000×G for 60 minutes at 4° C., and then filtrated with 0.2 μm filter to obtain the soluble fraction.
(2) The obtained soluble fraction was filled in equilibrium HiTrap Q column (5 mL×2) with buffer solution A, and phosphodiesterase fractions were eluted by 300 mL of buffer solution A with linear gradient from 0 to 0.8 M NaCl concentration. 5 ml each of 60 eluents were collected, and each eluents were examined for cyclic AMP metabolic activities of phosphodiesterase. The fraction eluting with about 350 mM NaCl concentration parts, where metabolic activities were not inactivated by 10 μM of rolipram (selective inhibitor for phosphodiesterase IV) and 10 μM of milrinone (selective inhibitor for phosphodiesterase III), were collected as storage solution for using to test PDE 7 inhibiting effect.
(3) The tested compound having desired concentration was reacted in the solution of 20 mM tris-HCl (pH 7.5), 1 mM of MgCl2, 100 μM of EDTA, 330 μg/mL of bovine serum albumin, 4 μg/mL of 5′-nucleotidase, 0.1 μCi of ^3H-cAMP (0.064 μM of cAMP), 10 μM of rolipram in storage solution of PDE 7 for 2 hours at 25° C. After the reaction, suspension of Sephadex®-QAE in 10 mM of HEPES-Na (pH 7.0) was added to the reaction mixture, and the mixture was left at rest for 5 minutes. Further, Sephadex®-QAE was added to the obtained supernatant and the mixture was leaved at rest for 5 minutes, then, the radioactivity of the solution was measured.
(4) IC50 was calculated as 50% inhibiting concentration of the metabolic activities of phosphodiesterase VII of the tested compound.

| IC50 | SMILES |
| --- | --- |
| ≤ 100 nM | COc1nc(N2CCN(C)CC2)ccc1-c1nc2c(C)nn(C3CCCCC3)c2c(=O)[nH]1 [Compound 16, 1-Cyclohexyl-5-[2-methoxy-6-(4-methyl-1-piperazinyl)-3-pyridinyl]-3-methyl-1,6-dihydro-7H-pyrazolo[4,3-d]pyrimidin-7-one] |
| ≤ 100 nM | COc1nc(N2CCOCC2)ccc1-c1nc2c(C)nn(C3CCCCC3)c2c(=O)[nH]1 [Compound 17, 1-Cyclohexyl-5-[2-methoxy-6-(4-morpholinyl)-3-pyridinyl]-3-methyl-1,6-dihydro-7H-pyrazolo[4,3-d]pyrimidin-7-one] |
| ≤ 100 nM | COc1nc(N2CCCN(C)CC2)ccc1-c1nc2c(C)nn(C3CCCCC3)c2c(=O)[nH]1 [Compound 18, 1-Cyclohexyl-5-[2-methoxy-6-(4-methyl-1,4-diazepan-1-yl)-3-pyridinyl]-3-meth-1-1,6-dihydro-7H-pyrazolo[4,3-d]pyrimidin-7-one] |
| ≤ 100 nM | COc1nc(N2CCN(C)CC2)ccc1-c1nc2c(c(C3CCCCC3)nn2C)c(=O)[nH]1 [Compound 20, 3-Cyclohexyl-6-[2-methoxy-6-(4-methyl-1-piperazinyl)-3-pyridinyl]-1-methyl-1,5-dihydro-4H-pyrazolo[3,4-d]pyrimidin-4-one] |
| ≤ 100 nM | COc1nc(N2CCOCC2)ccc1-c1nc2c(c(C3CCCCC3)nn2C)c(=O)[nH]1 [Compound 21, 3-Cyclohexyl-6-[2-methoxy-6-(4-morpholinyl)-3-pyridinyl]-1-methyl-1,5-dihydro-4H-pyrazolo[3,4-d]pyrimidin-4-one] |
| ≤ 100 nM | COc1nc(N2CCCN(C)CC2)ccc1-c1nc2c(c(C3CCCCC3)nn2C)c(=O)[nH]1 [Compound 22, 3-Cyclohexyl-6-[2-methoxy-6-(4-methyl-1,4-diazepan-1-yl)-3-pyridinyl]-1-methyl-1.5-dihydro-4H-pyrazolo[3,4-d]pyrimidin-4-one] |
| ≤ 100 nM | COc1nc(N2CCC(O)CC2)ccc1-c1nc2c(c(C3CCCCC3)nn2C)c(=O)[nH]1 [Compound 25, 3-Cyclohexyl-6-[6-(4-hydroxy-1-piperidinyl)-2-methoxy-3-pyridinyl]-1-methyl-1,5-dihydro-4H-pyrazolo[3,4-d]pyrimidin-4-one] |
| ≤ 100 nM and 2.6 nM | CNC1CCN(c2ccc(-c3nc4c(c(C5CCCCC5)nn4C)c(=O)[nH]3)c(OC)n2)CC1 [Compound 26, 3-Cyclohexyl-6-{2-methoxy-6-[4-(methylamino)-1-piperidinyl]-3-pyridinyl}-1-methyl-1,5-dihydro-4H-pyrazolo[3,4-d]-pyrimidin-4-one] |
| ≤ 100 nM | COc1nc(N2CCC(N(C)C)CC2)ccc1-c1nc2c(c(C3CCCCC3)nn2C)c(=O)[nH]1 [Compound 27, 3-Cyclohexyl-6-{6-[4-(dimethylamino)-1-piperidinyl]-2-methoxy-3-pyridinyl}-1-methyl-1.5-dihydro-4H-pyrazolo[3,4-d]-pyrimidin-4-one] |
| ≤ 100 nM | COc1nc(N2CCC(N)CC2)ccc1-c1nc2c(c(C3CCCCC3)nn2C)c(=O)[nH]1 [Compound 28, 6-[6-(4-Amino-1-piperidinyl)-2-methoxy-3-pyridinyl]-3-cyclohexyl-1-methyl-1,5-dihydro-4H-pyrazolo[3,4-d]pyrimidin-4-one] |
| ≤ 100 nM | COc1nc(N2CCC(NC(C)=O)CC2)ccc1-c1nc2c(c(C3CCCCC3)nn2C)c(=O)[nH]1 [Compound 29, N-{1-[5-(3-Cyclohexyl-1-methyl-4-oxo-4,5-dihydro-1H-pyrazolo[3,4-d]-pyrimidin-6-yl)-6-methoxy-2-piridinyl]-4-piperidinyl}acetamide] |
| ≤ 100 nM and 3.2 nM | CNC1CCN(c2ccc(-c3nc4c(C)nn(C5CCCCC5)c4c(=O)[nH]3)c(OC)n2)CC1 [Compound 32] |
| ≤ 100 nM | COc1nc(N2CCC(N(C)C)CC2)ccc1-c1nc2c(C)nn(C3CCCCC3)c2c(=O)[nH]1 [Compound 33] |
| ≤ 100 nM | COc1nc(S(=O)(=O)N2CCCN(C)CC2)ccc1-c1nc2c(c(C3CCCCC3)nn2C)c(=O)[nH]1 [Compound 36, 3-Cyclohexyl-6-{2-methoxy-6-[(4-methyl-1,4-diazepan-1-yl)sulfonyl]-3-pyridinyl}-1-methyl-1,5-dihydro-4H-pyrazolo[3,4-d]pyrimidin-4-one] |
| ≤ 100 nM | COc1nc(N2CCC(O)CC2)ccc1-c1nc2c(C)nn(C3CCCCC3)c2c(=O)[nH]1 [Compound 37, 1-Cyclohexyl-5-[6-(4-hydroxy-1-piperidinyl)-2-methoxy-3-pyridinyl]-3-methyl-1,6-dihydro-7H-pyrazolo[4,3-d]pyrimidin-7-one] |
| ≤ 100 nM | CCOc1nc(N2CCN(C)CC2)ccc1-c1nc2c(C)nn(C3CCCCC3)c2c(=O)[nH]1 [Compound 43] |
| ≤ 100 nM | CCOc1nc(N2CCCN(C)CC2)ccc1-c1nc2c(C)nn(C3CCCCC3)c2c(=O)[nH]1 [Compound 44, 1-Cyclohexyl-5-[2-ethoxy-6-(4-methyl-1,4-diazepan-1-yl)-3-pyridinyl]-3-methyl-1,6-dihydro-7H-pyrazolo[4,3-d]pyrimidin-7-one] |
| ≤ 100 nM | CCOc1nc(N2CCC(N(C)C)CC2)ccc1-c1nc2c(C)nn(C3CCCCC3)c2c(=O)[nH]1 [Compound 47, 1-Cyclohexyl-5-{6-[4-(dimethylamino)-1-piperidinyl]-2-ethoxy-3-pyridinyl]-3-methyl-1,6-dihydro-7H-pyrazolo[4,3-d]-pyrimidin-7-one] |
| ≤ 100 nM | CCOc1nc(N2CCC(NC)CC2)ccc1-c1nc2c(C)nn(C3CCCCC3)c2c(=O)[nH]1 [Compound 48, 1-Cyclohexyl-5-{2-ethoxy-6-[4-(methylamino)-1-piperidinyl]-3-pyridinyl}-3-methyl-1,6-dihydro-7H-pyrazolo[4,3-d]pyrimidin-7-one] |
| ≤ 100 nM | CCOc1nc(N2CCC(O)CC2)ccc1-c1nc2c(C)nn(C3CCCCC3)c2c(=O)[nH]1 [Compound 49, 1-Cyclohexyl-5-[2-ethoxy-6-(4-hydroxy-1-piperidinyl)-3-pyridinyl]-3-methyl-1,6-dihydro-7H-pyrazolo[4,3-d]pyrimidin-7-one] |

Target: PDE 4 (phosphodiesterase IV)
Experiment: PDE 4 inhibiting effect (Biological Test 2; 3H-cAMP hydrolysis by PDE 4 fraction from Balb/c mouse liver)
Assay type: biochemical, mice
Settings: PDE 4 active fraction from Balb/c mouse liver; 0.064 μM cAMP, 2 hours at 25° C.
Protocol: The PDE 4 (phosphodiesterase IV) inhibiting effect of the compounds of the present invention was performed by the following method, which was modified assay method described in Biochemical. Pharmacol. 48(6), 1219-1223 (1994).
(1) The active fraction of PDE 4 (phosphodiesterase IV) was obtained. That is, the livers obtained from three Balb/c mice (male, 12 weeks: obtainable from CLEA Japan, Inc.) were suspended with 30 mL of buffer solution B [20 mM of bis-tris, 5 mM of 2-mercaptoethnol, 2 mM of benzamidine, 2 mM of EDTA, 0.1 mM of 4-(2-aminoethyl)benzensulfonyl hydrochloride, 50 mM of sodium acetate; pH 6.5], then homogenized by Polytron® homogenizer. The homogenate were centrifuged under 25,000×G for 10 minutes at 4° C. The supernatant was separated and thus obtained supernatant was further centrifuged under 100,000×G for 60 minutes at 4° C., and then filtrated with 0.2pm filter to obtain the soluble fraction. […]
(3) The tested compound having desired concentration was reacted in the solution of 20 mM tris-HCl (pH 7.5), […], 100 μM of EDTA, 330 μg/mL of bovine serum albumin, 4 μg/mL of 5′-nucleotidase, 0.1 μCi of ^3H-cAMP (0.064 μM of cAMP), and storage solution of PDE 4 for 2 hours at 25° C. […] Further, Sephadex®-QAE was added to the obtained supernatant and the mixture was left at rest for 5 minutes, then, the radioactivity of the solution was measured. […]

| IC50 | SMILES |
| --- | --- |
| 1200 nM | CNC1CCN(c2ccc(-c3nc4c(c(C5CCCCC5)nn4C)c(=O)[nH]3)c(OC)n2)CC1 [Compound 26, 3-Cyclohexyl-6-{2-methoxy-6-[4-(methylamino)-1-piperidinyl]-3-pyridinyl}-1-methyl-1,5-dihydro-4H-pyrazolo[3,4-d]-pyrimidin-4-one] |
| 980 nM | CNC1CCN(c2ccc(-c3nc4c(C)nn(C5CCCCC5)c4c(=O)[nH]3)c(OC)n2)CC1 [Compound 32] |
